{"source": "paper PMC9276531", "about": "“Hyaluronic acid–GPRC5C signalling promotes dormancy in haematopoietic stem cells” (Nature Cell Biology, 2022)", "type_in_all_cases": "cell-based", "key": {"[1]": {"target": "T1, GPRC5C (Homo sapiens, UniProt Q9NQ84)", "T1 construct": "GPRC5C-Tango plasmid, N-terminal Flag, PRESTO-Tango reporter fusion; transfected in HTLA or HEK293T cells", "T1 sequence (Q9NQ84 24-441)": "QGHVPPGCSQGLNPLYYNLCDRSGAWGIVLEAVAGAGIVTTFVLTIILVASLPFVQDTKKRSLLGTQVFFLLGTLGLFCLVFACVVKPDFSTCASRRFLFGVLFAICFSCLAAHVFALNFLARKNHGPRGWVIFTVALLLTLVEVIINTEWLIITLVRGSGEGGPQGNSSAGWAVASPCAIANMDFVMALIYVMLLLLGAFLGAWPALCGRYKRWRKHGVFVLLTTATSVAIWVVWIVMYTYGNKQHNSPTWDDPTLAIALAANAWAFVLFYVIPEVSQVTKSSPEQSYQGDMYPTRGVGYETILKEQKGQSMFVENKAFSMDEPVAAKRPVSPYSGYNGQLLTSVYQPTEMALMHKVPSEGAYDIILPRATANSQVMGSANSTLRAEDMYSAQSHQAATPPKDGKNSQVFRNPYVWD", "experiment": "PRESTO-Tango beta-arrestin recruitment, luciferase", "settings": "HTLA cells, 24 h, HEPES/HBSS pH 7.4"}, "[2]": {"target": "T1, GPRC5C", "experiment": "competition with HA-fluorescein on transfected HEK293T cells, flow cytometry", "settings": "100 uM NAG, 8 ug HA-fluorescein, 60 min, room temperature"}, "[3]": {"target": "T2, GPRC5C (Homo sapiens, UniProt Q9NQ84, N41L, form not given)", "T2 construct": "GPRC5C-Tango plasmid, N-terminal Flag, PRESTO-Tango reporter fusion; transfected in HTLA or HEK293T cells", "T2 sequence (Q9NQ84 12-429 N41L)": "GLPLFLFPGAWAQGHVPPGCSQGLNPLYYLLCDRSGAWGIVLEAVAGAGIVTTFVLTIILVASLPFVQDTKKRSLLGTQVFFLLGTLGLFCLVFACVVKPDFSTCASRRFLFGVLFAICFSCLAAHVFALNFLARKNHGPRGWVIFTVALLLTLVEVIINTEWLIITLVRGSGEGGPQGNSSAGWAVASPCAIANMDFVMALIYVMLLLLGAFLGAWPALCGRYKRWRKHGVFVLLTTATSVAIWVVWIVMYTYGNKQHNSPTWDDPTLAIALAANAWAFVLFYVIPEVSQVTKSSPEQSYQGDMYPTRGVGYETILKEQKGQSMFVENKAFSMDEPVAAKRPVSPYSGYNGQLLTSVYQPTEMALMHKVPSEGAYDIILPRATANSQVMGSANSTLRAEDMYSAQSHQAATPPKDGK", "experiment": "PRESTO-Tango beta-arrestin recruitment, luciferase", "settings": "HTLA cells, putative N-glycosylation site mutant"}}, "data": [{"smiles": "CC(=O)N[C@H]1C(O)O[C@H](CO)[C@@H](O)[C@@H]1O", "note": "(stereo partly drawn) [NAG, N-acetyl-D-glucosamine]", "values": [{"measurement": "concentration-response (agonist)", "setting": "[1]", "value": "HA and NAG treatments led to a dose-dependent response"}, {"measurement": "competition with HA-fluorescein on transfected HEK293T cells, flow cytometry", "setting": "[2]", "value": "HA interaction with GPRC5C was reduced when NAG was present"}, {"measurement": "concentration-response (agonist)", "setting": "[3]", "value": "dampened the luciferase response that was previously elicited by treatment with HA and NAG"}]}]}
